According to patent EP0319576B1, “PROSTAGLANDIN DERIVATIVES, PROCESSES FOR PREPARING THEM AND PHARMACEUTICAL COMPOSITIONS CONTAINING SAID DERIVATIVES” (IBI- Istituto Biochimico Italiano Giovanni Lorenzini S.p.A., priority 1987, dated 1988):

Legend:
[1] = test system: NaOH (2) 0.2 N; experiment: Cytoprotective activity in the rat, NaOH 0.2 N; type: in vivo; conditions: read-out: Cytoprotective activity DE50, NaOH (2) 0.2 N
Procedure: (§1) iv) Cytoprotective activity in the rat
(§2) The tests were carried out according to what has been described in literature: • 1 (A.Robert et al. Gastroenterology, 77, 433 (1979)) (Table 4) • 2 (Szabo et al. Sciene 214 (200) (1981)) (Table 4)

[2] = test system: NaCl (2) 25%; experiment: Cytoprotective activity in the rat, NaCl 25%; type: in vivo; conditions: read-out: Cytoprotective activity DE50, NaCl (2) 25%
Procedure: as §1, §2

[3] = test system: Ethanol (1) +NEM; experiment: Cytoprotective activity in the rat, Ethanol + NEM; type: in vivo; conditions: read-out: Cytoprotective activity DE50, Ethanol (1) +NEM
Procedure: as §1, §2

[4] = test system: Acetyl salicyl-ic acid + HCl; experiment: Cytoprotective activity in the rat, acetylsalicylic acid + HCl; type: in vivo; conditions: read-out: Cytoprotective activity DE50, Acetyl salicyl-ic acid + HCl
Procedure: as §1, §2

[5] = Oral LD50 in the rat; conditions: in vivo

CCCCCCC1CCC(N)C1CCCCCCC(OCC)OCC (centres unmarked) [IBI-P-01053, 3-hexyl-2-(6-diethoxymethyl-hexyl)-cyclopentyl amine]
ED50 [1]: 6 mg/kg | ED50 [2]: 17 mg/kg | ED50 [3]: 7 mg/kg | ED50 [4]: 252 mg/kg | LD50 [5]: 3000 mg/kg

CCCCCC1C(N)CCC1CCCCCCCCO (centres unmarked) [IBI-P-10007, 2-pentyl-3-(8-hydroxy-octyl)-cyclopentyl amine]
ED50 [1]: 4 mg/kg | ED50 [2]: 4 mg/kg | ED50 [3]: 8 mg/kg | ED50 [4]: 165 mg/kg | LD50 [5]: 3000 mg/kg

CCCCCCC1CCC2(NC(=O)NC2=O)C1CCCCCCC(=O)O (centres unmarked) [IBI-P-01028, 5-spiro-[2-(6-carboxy-ethyl)-3-hexyl-cyclopentyl]-imidazoline-2,4-dione]
ED50 [1]: 18 mg/kg | ED50 [2]: 15 mg/kg | ED50 [3]: 30 mg/kg | ED50 [4]: 78 mg/kg | LD50 [5]: 2000 mg/kg

CCCCCCC1CCCC(N)C1CCCCCCC(=O)O (centres unmarked) [IBI-P-05006, 3-hexyl-2-(6-carboxy-hexyl)-cyclohexyl-amine]
ED50 [1]: 9 mg/kg | ED50 [2]: 25 mg/kg | ED50 [3]: 20 mg/kg | ED50 [4]: > 200 mg/kg | LD50 [5]: 3000 mg/kg
